US20110245284A1, “Alkoxy- and Alkylthio-Substituted Anilinopyrimidines” (Bayer CropScience AG, priority 2008, published 2011)

Assays:
Leptosphaeria nodorum = Leptosphaeria nodorum test (wheat) / protective; format: in vivo; settings: Parastagonospora nodorum, active compound concentration 500 ppm, evaluation 7-9 days after inoculation, read-out: efficacy
Description: Thereafter, the plants are placed in a greenhouse at 90% relative atmospheric humidity and a temperature of 22° C.

Pyricularia oryzae = assay: whole plant or invertebrate; format: in vivo; settings: 120 h, read-out: efficacy
[1] = logP by LC-MS on reversed-phase columns (C 18), method [b], acidic range pH 2.7; format: physicochemical; settings: pH 2.7, log p
Description: (§1) The logP values were determined in accordance with EEC Directive 79/831 Annex V.A8 by HPLC (High Performance Liquid Chromatography) on reversed-phase columns (C 18), using the methods below:
[b] The LC-MS determination in the acidic range is carried out at pH 2.7 using the mobile phases 0.1% aqueous formic acid and acetonitrile (contains 0.1% formic acid), linear gradient from 10% acetonitrile to 95% acetonitrile.

Rhizoctonia solani = assay: Rhizoctonia test (rice) / protective; format: in vivo; settings: 96 h, active compound concentration 250 ppm, evaluation 4 days after inoculation, read-out: efficacy
[2] = logP by HPLC on reversed-phase columns (C 18), method [a], acidic range pH 2.3; format: physicochemical
Description: as §1
[a] The determination is carried out in the acidic range at pH 2.3 using the mobile phases 0.1% aqueous phosphoric acid and acetonitrile, linear gradient from 10% acetonitrile to 95% acetonitrile.

Sphaerotheca fuliginea = assay: Sphaerotheca test (cucumber) / protective; format: in vivo; settings: Podosphaera fuliginea, 168 h, active compound concentration 500 ppm, evaluation 7 days after inoculation, read-out: efficacy
Description: The plants are subsequently placed in a greenhouse at 70% relative atmospheric humidity and a temperature of 23° C.

[3] = logP by LC-MS on reversed-phase columns (C 18), method [c], neutral range pH 7.8; format: physicochemical; settings: pH 7.8
Description: as §1
[c] The LC-MS determination in the neutral range is carried out at pH 7.8 using the mobile phases 0.001 molar aqueous ammonium bicarbonate solution and acetonitrile, linear gradient from 10% acetonitrile to 95% acetonitrile.

Alternaria solani = assay: Alternaria test (tomato) / protective; format: in vivo; settings: 72 h, active compound concentration 100 ppm, evaluation 3 days after inoculation, read-out: efficacy
Description: The plants are then placed in an incubation cabinet at about 20° C. and 100% relative atmospheric humidity.

Venturia inaequalis = assay: Venturia test (apple) / protective; format: in vivo; settings: 240 h, active compound concentration 100 ppm, evaluation 10 days after inoculation, read-out: efficacy
Description: After the spray coating has dried on, the plants are inoculated with an aqueous conidia suspension of the apple scab pathogen Venturia inaequalis and then remain for 1 day in an incubation cabinet at about 20° C. and 100% relative atmospheric humidity.

Pyrenophora teres = Pyrenophora teres test (barley) / protective; format: in vivo; settings: 192 h, active compound concentration 500 ppm, evaluation 8 days after inoculation, read-out: efficacy
Description: After the spray coating has dried on, the plants are sprayed with a spore suspension of Pyrenophora teres. The plants remain in an incubation cabinet for 48 hours at 20° C. and 100% relative atmospheric humidity.

Compound	pest or weed control at 500 ppm (Leptosphaeria nodorum) [%]	chromatographic logP [1]	pest or weed control at 500 ppm (Sphaerotheca fuliginea) [%]	chromatographic logP [3]	chromatographic logP ([2]; pH 2.3, logP (pH2.3))	pest or weed control at 500 ppm (Pyrenophora teres) [%]	also measured
CCC(C)Sc1cccc(Nc2ncc(Cl)c(NC3CCC3)n2)c1 (stereo not shown) [Example 6]	≥ 70	4.14					pest or weed control at 250 ppm (Pyricularia oryzae): ≥ 80%; pest or weed control at 250 ppm (Rhizoctonia solani): ≥ 80%
COCc1cccc(Nc2ncc(F)c(NC3CCC3)n2)c1 [Example 8]	≥ 70		≥ 70	2.95			chromatographic logP ([2]; pH 2.3, log p): 1.5
COCc1cccc(Nc2ncc(Cl)c(N(C)C(C)C)n2)c1 [Example 29]	≥ 70			4			chromatographic logP ([2]; pH 2.3, log p): 2.56
CCCSc1cccc(Nc2ncc(Cl)c(NC(C)C)n2)c1 [Example 31, 5-Chloro-N^4-(propan-2-yl)-N^2-[3-(propylsulphanyl)phenyl]pyrimidine-2,4-diamine]	≥ 70	3.3	≥ 70		3.27		pest or weed control at 250 ppm (Rhizoctonia solani): ≥ 80%
CCCS(=O)(=O)c1cccc(Nc2ncc(C(F)(F)F)c(NC3CCC3)n2)c1 [Example 34, N^4-Cyclobutyl-N^2-[3-(propylsulphonyl)phenyl]-5-(trifluoromethyl)pyrimidine-2,4-diamine]	≥ 70	3.46	≥ 70		3.46		pest or weed control at 250 ppm (Rhizoctonia solani): ≥ 80%
CCS(=O)(=O)C(C)c1cccc(Nc2ncc(C(F)(F)F)c(NC3CCC3)n2)c1 (stereo not shown) [Example 40, N^4-cyclobutyl-N^2-{3-[1-(ethylsulphonyl)ethyl]phenyl}-5-(trifluoromethyl)pyrimidine-2,4-diamine]	≥ 70	2.89	≥ 70		2.89		
CC[S+]([O-])C(C)c1cccc(Nc2ncc(C(F)(F)F)c(NC3CCC3)n2)c1 (stereo not shown) [Example 43, N^4-Cyclobutyl-N^2-{3-[1-(ethylsulphinyl)ethyl]phenyl}-5-(trifluoromethyl)pyrimidine-2,4-diamine]	≥ 70	2.55	≥ 70		2.55		
COCc1cccc(Nc2ncc(Cl)c(NCC#N)n2)c1 [Example 51]				2.09			chromatographic logP ([2]; pH 2.3, log p): 1.68
CCCSc1cccc(Nc2ncc(Cl)c(NC3CC3C)n2)c1 (stereo not shown) [Example 63]	≥ 70	3.58					pest or weed control at 100 ppm (Alternaria solani): ≥ 70%; pest or weed control at 100 ppm (Venturia inaequalis): ≥ 70%
COCc1cccc(Nc2ncc(Cl)c(NC3CC3C)n2)c1 (stereo not shown) [Example 65]	≥ 70	2.03		3.3			pest or weed control at 100 ppm (Alternaria solani): ≥ 70%; pest or weed control at 100 ppm (Venturia inaequalis): ≥ 70%
CCOCCOc1cc(Nc2ncc(C(F)(F)F)c(NC3CC3)n2)ccc1C [Example 79]	≥ 70	3.66	≥ 70	4.15			pest or weed control at 250 ppm (Pyricularia oryzae): ≥ 80%; pest or weed control at 250 ppm (Rhizoctonia solani): ≥ 80%
CCCS(=O)(=O)c1ccc(Nc2ncc(Cl)c(NC3CC3)n2)cc1 [Example 97]	≥ 70	2.42		2.76		≥ 70	pest or weed control at 250 ppm (Pyricularia oryzae): ≥ 80%
CCC[S+]([O-])c1ccc(Nc2ncc(Cl)c(NC3CC3)n2)cc1 (stereo not shown) [Example 98]	≥ 70	1.78	≥ 70			≥ 70	pest or weed control at 250 ppm (Pyricularia oryzae): ≥ 80%
CC[S+]([O-])c1cccc(Nc2ncc(Br)c(NC3CCC3)n2)c1 (stereo not shown) [Example 112]	≥ 70	1.88	≥ 70	2.63		≥ 70	
CC[S+]([O-])c1cccc(Nc2ncc(Cl)c(NC3CC3)n2)c1 (stereo not shown) [Example 114]	≥ 70	1.48	≥ 70	2.11		≥ 70	chromatographic logP ([2]; pH 2.3, log p): 1.49
CCCC[S+]([O-])c1cccc(Nc2ncc(Cl)c(NC3CC3)n2)c1 (stereo not shown) [Example 124]	≥ 70	2.13	≥ 70	2.71		≥ 70	
CCSC(C)c1cccc(Nc2ncc(Cl)c(NC(C)C)n2)c1 (stereo not shown) [Example 131]	≥ 70	2.91	≥ 70	4.65		≥ 70	

Compound	pest or weed control at 500 ppm (Leptosphaeria nodorum) [%]	chromatographic logP [1]	pest or weed control at 500 ppm (Sphaerotheca fuliginea) [%]	chromatographic logP [3]	chromatographic logP ([2]; pH 2.3, logP (pH2.3))	pest or weed control at 500 ppm (Pyrenophora teres) [%]	also measured
CCC(C)SC(C)c1cccc(Nc2ncc(C(F)(F)F)c(NC3CC3)n2)c1 (stereo not shown) [Example 132]	≥ 70	5.09	≥ 70	5.38		≥ 70	
CCCCS(=O)(=O)c1cccc(Nc2ncc(Br)c(NC3CCC3)n2)c1 [Example 151]	≥ 70	3.24		3.88			pest or weed control at 250 ppm (Pyricularia oryzae): ≥ 80%; pest or weed control at 250 ppm (Rhizoctonia solani): ≥ 80%
CC(C)C[S+]([O-])c1cccc(Nc2ncc(Cl)c(NC3CC3)n2)c1 (stereo not shown) [Example 162]	≥ 70	2.11		2.81			pest or weed control at 100 ppm (Alternaria solani): ≥ 70%
CCC(C)[S+]([O-])c1cccc(Nc2ncc(Cl)c(NC3CC3)n2)c1 (stereo not shown) [Example 175]	≥ 70	2.12	≥ 70	2.74		≥ 70	
CCOCCSc1cccc(Nc2ncc(C(F)(F)F)c(NC3CC3)n2)c1 [Example 190]	≥ 70	3.87	≥ 70	4.05		≥ 70	
COCC(O)c1cccc(Nc2ncc(Cl)c(NC3CC3)n2)c1 (stereo not shown) [Example 194]	≥ 70	1.26	≥ 70			≥ 70	
COCc1cccc(Nc2ncc(Cl)c(NC3CC(C)C3)n2)c1 (stereo not shown) [Example 198]	≥ 70		≥ 70				chromatographic logP ([2]; pH 2.3, log p): 4.04
CCOCCCSc1cccc(Nc2ncc(Cl)c(NC3CC3)n2)c1 [Example 204]	≥ 70	3.02		4.22		≥ 70	
COCc1cccc(Nc2ncc(Cl)c(NC3CCC3C)n2)c1 (stereo not shown) [Example 207]	≥ 70	2.44		4			pest or weed control at 250 ppm (Pyricularia oryzae): ≥ 80%; pest or weed control at 250 ppm (Rhizoctonia solani): ≥ 80%
COCCOc1cccc(Nc2ncc(Cl)c(NC3CC3C)n2)c1 (stereo not shown) [Example 209]	≥ 70					≥ 70	
COCCCOC(C)c1cccc(Nc2ncc(Cl)c(NC3CC3)n2)c1 (stereo not shown) [Example 256, 5-Chloro-N4-cyclopropyl-N2-{3-[1-(3-methoxypropoxy)ethyl]phenyl}pyrimidine-2,4-diamine]		2.2		3.62	2.2		
CCSC(C)c1cccc(Nc2ncc(C(F)(F)F)c(Cl)n2)c1 (stereo not shown) [Xa-12, 4-Chloro-N-{3-[1-(ethylsulphanyl)ethyl]phenyl}-5-(trifluoromethyl)pyrimidin-2-amine]					4.9		
COC(C)c1cccc(Nc2ncc(Br)c(Cl)n2)c1 (stereo not shown) [Xa-13, 5-Bromo-4-chloro-N-[3-(1-methoxyethyl)phenyl]pyrimidin-2-amine]					3.09		
CC(O)c1cccc(Nc2ncc(Cl)c(Cl)n2)c1 (stereo not shown) [Xa-14, 1-{3-[(4,5-Dichloropyrimidin-2-yl)amino]phenyl}ethanol]					1.98		
CC(O)c1cccc(Nc2ncc(C(F)(F)F)c(Cl)n2)c1 (stereo not shown) [Xa-15, 1-(3-{[4-Chloro-5-(trifluoromethyl)pyrimidin-2-yl]amino}phenyl)ethanol]					2.81		
CCCS(=O)(=O)c1cccc(Nc2ncc(C(F)(F)F)c(Cl)n2)c1 [Xc-1, 4-chloro-N-[3-(propylsulphonyl)phenyl]-5-(trifluoromethyl)pyrimidin-2-amine]					3.29		
